{"source": "paper PMC9030254", "about": "“Target Hopping from Protein Kinases to PXR: Identification of Small-Molecule Protein Kinase Inhibitors as Selective Modulators of Pregnane X Receptor from TüKIC Library” (Cells, 2022)", "assay_in_all_cases": "Kinase profiling", "format_in_all_cases": "biochemical", "key": {"ACVR1": {"biological_target": "T1, ACVR1 (Homo sapiens, UniProt Q04771)", "T1 construct": "purchased ProQinase (Freiburg, Germany)", "T1 sequence (Q04771 21-509)": "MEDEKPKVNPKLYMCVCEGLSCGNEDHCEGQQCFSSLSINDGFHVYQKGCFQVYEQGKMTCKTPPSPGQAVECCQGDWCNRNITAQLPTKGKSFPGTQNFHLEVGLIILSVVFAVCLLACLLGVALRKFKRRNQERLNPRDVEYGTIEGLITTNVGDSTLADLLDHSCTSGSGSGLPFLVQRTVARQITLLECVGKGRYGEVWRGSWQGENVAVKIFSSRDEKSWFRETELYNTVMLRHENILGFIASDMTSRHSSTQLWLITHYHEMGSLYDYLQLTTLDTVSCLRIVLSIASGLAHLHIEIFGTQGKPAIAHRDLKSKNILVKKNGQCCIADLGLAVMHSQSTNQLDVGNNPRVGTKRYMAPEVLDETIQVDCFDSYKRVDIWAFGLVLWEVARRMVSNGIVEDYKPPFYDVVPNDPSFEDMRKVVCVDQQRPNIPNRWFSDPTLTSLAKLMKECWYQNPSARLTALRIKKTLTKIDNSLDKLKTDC", "description": "(§1) The analysis was performed by ProQinase (Freiburg, Germany)."}, "BRK": {"biological_target": "T2, BRK (Homo sapiens, UniProt Q13882)", "T2 construct": "purchased ProQinase (Freiburg, Germany)", "T2 sequence (Q13882 whole entry)": "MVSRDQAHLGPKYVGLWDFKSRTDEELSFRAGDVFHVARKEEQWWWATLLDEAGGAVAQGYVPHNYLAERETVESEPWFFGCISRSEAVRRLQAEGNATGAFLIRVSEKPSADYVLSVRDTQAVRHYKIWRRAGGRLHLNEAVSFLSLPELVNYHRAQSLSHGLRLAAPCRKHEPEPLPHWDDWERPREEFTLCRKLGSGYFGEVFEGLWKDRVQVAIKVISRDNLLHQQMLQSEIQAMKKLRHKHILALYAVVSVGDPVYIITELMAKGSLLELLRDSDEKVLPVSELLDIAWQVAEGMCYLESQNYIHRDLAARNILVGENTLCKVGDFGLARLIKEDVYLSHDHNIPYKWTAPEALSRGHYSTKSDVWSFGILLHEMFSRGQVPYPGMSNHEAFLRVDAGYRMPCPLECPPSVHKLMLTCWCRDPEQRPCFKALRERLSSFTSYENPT", "description": "as §1"}, "CAMK4": {"biological_target": "T3, CAMK4 (Homo sapiens, UniProt Q16566)", "T3 construct": "purchased ProQinase (Freiburg, Germany)", "T3 sequence (Q16566 1-473)": "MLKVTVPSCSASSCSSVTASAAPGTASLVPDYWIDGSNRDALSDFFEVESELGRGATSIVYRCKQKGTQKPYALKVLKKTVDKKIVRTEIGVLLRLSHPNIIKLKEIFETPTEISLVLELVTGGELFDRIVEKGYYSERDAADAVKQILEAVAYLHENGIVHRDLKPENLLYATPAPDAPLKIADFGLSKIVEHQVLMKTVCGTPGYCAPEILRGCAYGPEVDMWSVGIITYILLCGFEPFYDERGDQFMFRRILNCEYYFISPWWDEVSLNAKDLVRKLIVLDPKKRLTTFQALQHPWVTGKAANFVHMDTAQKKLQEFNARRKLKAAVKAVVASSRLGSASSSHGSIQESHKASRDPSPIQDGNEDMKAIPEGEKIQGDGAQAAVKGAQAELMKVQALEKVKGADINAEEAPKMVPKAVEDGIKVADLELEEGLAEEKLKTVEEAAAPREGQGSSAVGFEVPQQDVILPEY", "description": "as §1"}, "CDK3/CycC": {"biological_target": "T4, CDK3/CycC (Homo sapiens, UniProt Q00526)", "T4 construct": "purchased ProQinase (Freiburg, Germany)", "T4 sequence (Q00526 whole entry)": "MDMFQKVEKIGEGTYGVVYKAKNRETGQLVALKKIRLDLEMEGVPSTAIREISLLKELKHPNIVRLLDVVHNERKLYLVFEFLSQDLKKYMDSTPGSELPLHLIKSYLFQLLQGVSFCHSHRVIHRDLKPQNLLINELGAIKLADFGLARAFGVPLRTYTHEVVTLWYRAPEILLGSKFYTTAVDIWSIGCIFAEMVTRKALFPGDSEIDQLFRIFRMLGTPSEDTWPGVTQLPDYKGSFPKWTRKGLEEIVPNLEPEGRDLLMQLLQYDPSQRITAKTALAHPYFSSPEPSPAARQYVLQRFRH", "T4 sequence (P24863 whole entry partner)": "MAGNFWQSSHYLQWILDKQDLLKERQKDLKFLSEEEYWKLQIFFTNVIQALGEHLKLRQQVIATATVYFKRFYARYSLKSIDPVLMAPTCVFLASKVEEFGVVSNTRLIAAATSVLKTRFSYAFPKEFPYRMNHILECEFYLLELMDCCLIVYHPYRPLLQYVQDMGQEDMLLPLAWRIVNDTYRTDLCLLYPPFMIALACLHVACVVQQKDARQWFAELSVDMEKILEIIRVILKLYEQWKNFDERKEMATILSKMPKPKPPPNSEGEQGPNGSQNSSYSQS", "description": "as §1"}, "DYRK1A": {"biological_target": "T5, DYRK1A (Homo sapiens, UniProt Q13627)", "T5 construct": "purchased ProQinase (Freiburg, Germany)", "description": "as §1"}, "FGFR1": {"biological_target": "T6, FGFR1 (Homo sapiens, UniProt P11362)", "T6 construct": "purchased ProQinase (Freiburg, Germany)", "T6 sequence (P11362 22-822)": "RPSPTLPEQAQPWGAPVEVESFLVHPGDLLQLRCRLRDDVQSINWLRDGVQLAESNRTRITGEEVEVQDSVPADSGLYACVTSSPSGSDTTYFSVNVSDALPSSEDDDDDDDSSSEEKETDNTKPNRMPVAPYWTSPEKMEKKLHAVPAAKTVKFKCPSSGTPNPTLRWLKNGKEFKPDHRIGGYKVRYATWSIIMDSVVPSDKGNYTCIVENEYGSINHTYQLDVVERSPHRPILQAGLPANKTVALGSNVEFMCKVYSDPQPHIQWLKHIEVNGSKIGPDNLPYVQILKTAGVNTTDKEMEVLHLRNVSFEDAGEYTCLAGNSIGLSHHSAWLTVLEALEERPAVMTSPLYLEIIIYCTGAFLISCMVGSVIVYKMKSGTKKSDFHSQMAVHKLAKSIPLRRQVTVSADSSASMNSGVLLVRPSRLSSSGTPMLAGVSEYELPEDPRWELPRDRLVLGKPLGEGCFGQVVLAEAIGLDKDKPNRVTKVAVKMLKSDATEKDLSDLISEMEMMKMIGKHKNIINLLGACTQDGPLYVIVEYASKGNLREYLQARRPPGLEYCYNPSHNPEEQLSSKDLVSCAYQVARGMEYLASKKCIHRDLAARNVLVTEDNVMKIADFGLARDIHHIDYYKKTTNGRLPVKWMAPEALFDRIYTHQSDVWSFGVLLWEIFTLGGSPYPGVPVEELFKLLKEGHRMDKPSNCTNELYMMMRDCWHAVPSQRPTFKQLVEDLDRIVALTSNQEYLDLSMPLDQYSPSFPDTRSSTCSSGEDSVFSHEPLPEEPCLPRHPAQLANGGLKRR", "description": "as §1"}, "PKCmu": {"biological_target": "T7, PKCmu (Homo sapiens, UniProt Q15139)", "T7 construct": "purchased ProQinase (Freiburg, Germany)", "T7 sequence (Q15139 1-912)": "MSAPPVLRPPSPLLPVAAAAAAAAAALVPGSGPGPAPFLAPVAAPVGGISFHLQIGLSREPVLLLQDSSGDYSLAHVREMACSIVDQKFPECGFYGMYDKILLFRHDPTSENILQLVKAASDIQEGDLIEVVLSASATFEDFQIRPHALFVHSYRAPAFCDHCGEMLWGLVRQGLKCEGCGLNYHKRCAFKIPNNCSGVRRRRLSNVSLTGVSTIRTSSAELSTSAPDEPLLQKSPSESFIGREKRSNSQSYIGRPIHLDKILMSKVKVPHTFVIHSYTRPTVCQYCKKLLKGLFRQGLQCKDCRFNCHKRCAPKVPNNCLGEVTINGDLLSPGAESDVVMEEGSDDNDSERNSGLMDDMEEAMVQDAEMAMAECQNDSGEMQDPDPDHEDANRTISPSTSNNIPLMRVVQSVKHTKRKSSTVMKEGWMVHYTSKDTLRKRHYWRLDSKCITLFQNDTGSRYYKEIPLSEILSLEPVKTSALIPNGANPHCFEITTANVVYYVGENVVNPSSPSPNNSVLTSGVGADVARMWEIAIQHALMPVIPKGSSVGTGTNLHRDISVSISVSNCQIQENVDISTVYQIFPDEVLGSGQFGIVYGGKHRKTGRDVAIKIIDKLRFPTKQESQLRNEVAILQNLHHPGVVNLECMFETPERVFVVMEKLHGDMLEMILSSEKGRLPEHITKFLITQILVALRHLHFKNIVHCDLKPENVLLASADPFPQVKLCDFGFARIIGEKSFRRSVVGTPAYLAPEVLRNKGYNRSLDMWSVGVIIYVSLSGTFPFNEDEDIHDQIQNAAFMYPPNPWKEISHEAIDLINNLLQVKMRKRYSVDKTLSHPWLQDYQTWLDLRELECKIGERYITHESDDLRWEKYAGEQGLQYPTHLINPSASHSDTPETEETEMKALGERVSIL", "description": "as §1"}, "PKN3": {"biological_target": "T8, PKN3 (Homo sapiens, UniProt Q6P5Z2)", "T8 construct": "purchased ProQinase (Freiburg, Germany)", "T8 sequence (Q6P5Z2 whole entry)": "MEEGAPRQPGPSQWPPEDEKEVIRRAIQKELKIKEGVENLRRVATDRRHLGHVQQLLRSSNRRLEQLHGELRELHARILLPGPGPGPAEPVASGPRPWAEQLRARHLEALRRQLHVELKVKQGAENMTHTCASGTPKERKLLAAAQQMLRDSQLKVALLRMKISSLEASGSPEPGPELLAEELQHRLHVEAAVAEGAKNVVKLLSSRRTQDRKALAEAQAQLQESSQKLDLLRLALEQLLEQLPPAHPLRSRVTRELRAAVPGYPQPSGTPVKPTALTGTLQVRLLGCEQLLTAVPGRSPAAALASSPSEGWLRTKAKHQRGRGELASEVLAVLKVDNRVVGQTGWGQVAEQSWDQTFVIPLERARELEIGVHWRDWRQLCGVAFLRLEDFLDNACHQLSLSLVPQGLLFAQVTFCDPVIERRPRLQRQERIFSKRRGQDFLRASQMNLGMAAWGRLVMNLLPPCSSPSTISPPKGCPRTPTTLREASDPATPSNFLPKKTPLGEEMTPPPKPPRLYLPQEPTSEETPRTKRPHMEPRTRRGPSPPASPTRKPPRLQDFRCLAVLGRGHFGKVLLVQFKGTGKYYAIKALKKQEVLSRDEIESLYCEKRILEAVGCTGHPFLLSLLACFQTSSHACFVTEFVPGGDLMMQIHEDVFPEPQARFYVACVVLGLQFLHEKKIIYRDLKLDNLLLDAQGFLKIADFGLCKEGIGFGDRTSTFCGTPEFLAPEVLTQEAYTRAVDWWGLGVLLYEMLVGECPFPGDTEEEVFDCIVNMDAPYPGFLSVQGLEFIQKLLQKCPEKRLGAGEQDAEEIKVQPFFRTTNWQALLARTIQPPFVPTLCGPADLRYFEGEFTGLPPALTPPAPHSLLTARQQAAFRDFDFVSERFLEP", "description": "as §1"}, "S6Kbeta": {"biological_target": "T9, S6Kbeta (Homo sapiens, UniProt Q9UBS0)", "T9 construct": "purchased ProQinase (Freiburg, Germany)", "T9 sequence (Q9UBS0 whole entry)": "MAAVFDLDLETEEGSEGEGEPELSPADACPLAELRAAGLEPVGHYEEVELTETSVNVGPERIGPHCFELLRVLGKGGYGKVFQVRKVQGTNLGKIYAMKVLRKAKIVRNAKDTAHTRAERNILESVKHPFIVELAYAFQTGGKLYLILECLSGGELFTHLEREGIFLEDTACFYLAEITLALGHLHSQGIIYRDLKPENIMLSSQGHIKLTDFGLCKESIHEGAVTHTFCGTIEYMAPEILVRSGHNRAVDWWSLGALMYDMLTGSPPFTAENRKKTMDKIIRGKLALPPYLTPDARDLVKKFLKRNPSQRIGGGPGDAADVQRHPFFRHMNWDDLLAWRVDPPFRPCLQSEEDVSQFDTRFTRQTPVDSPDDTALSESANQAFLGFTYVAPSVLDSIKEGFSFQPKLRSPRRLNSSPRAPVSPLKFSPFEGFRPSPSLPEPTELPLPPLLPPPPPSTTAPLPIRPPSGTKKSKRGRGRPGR", "description": "as §1"}, "SGK2": {"biological_target": "T10, SGK2 (Homo sapiens, UniProt Q9HBY8)", "T10 construct": "purchased ProQinase (Freiburg, Germany)", "T10 sequence (Q9HBY8 1-367)": "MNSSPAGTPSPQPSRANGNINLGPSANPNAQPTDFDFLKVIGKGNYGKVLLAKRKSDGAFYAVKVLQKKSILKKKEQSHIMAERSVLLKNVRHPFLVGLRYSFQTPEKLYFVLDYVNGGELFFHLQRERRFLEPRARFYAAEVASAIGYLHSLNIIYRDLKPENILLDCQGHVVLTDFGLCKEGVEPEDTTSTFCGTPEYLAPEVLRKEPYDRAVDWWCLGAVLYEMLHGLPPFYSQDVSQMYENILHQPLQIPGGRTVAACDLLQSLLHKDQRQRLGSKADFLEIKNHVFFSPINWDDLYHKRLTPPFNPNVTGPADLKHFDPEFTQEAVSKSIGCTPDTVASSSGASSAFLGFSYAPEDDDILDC", "description": "as §1"}}}
{"smiles": "O=C(Cc1ccccc1)Nc1ccc(F)c(Nc2ccc3c(c2)CCCCC3=O)c1", "note": "[Compound 100]", "values": [{"measurement": "Residual activity", "setting": "ACVR1; 1.0E-05 M", "result": "93 % of control"}, {"measurement": "Residual activity", "setting": "ACVR1; 1.0E-06 M", "result": "97 % of control"}, {"measurement": "Residual activity", "setting": "BRK; 1.0E-05 M", "result": "106 % of control"}, {"measurement": "Residual activity", "setting": "BRK; 1.0E-06 M", "result": "105 % of control"}, {"measurement": "Residual activity", "setting": "CAMK4; 1.0E-05 M", "result": "97 % of control"}, {"measurement": "Residual activity", "setting": "CAMK4; 1.0E-06 M", "result": "102 % of control"}, {"measurement": "Residual activity", "setting": "CDK3/CycC; 1.0E-05 M", "result": "89 % of control"}, {"measurement": "Residual activity", "setting": "CDK3/CycC; 1.0E-06 M", "result": "97 % of control"}, {"measurement": "Residual activity", "setting": "DYRK1A; 1.0E-05 M", "result": "98 % of control"}, {"measurement": "Residual activity", "setting": "DYRK1A; 1.0E-06 M", "result": "92 % of control"}, {"measurement": "Residual activity", "setting": "FGFR1; 1.0E-05 M", "result": "78 % of control"}, {"measurement": "Residual activity", "setting": "FGFR1; 1.0E-06 M", "result": "93 % of control"}, {"measurement": "Residual activity", "setting": "PKCmu; 1.0E-05 M", "result": "94 % of control"}, {"measurement": "Residual activity", "setting": "PKCmu; 1.0E-06 M", "result": "106 % of control"}, {"measurement": "Residual activity", "setting": "PKN3; 1.0E-05 M", "result": "101 % of control"}, {"measurement": "Residual activity", "setting": "PKN3; 1.0E-06 M", "result": "104 % of control"}, {"measurement": "Residual activity", "setting": "S6Kbeta; 1.0E-05 M", "result": "85 % of control"}, {"measurement": "Residual activity", "setting": "S6Kbeta; 1.0E-06 M", "result": "96 % of control"}, {"measurement": "Residual activity", "setting": "SGK2; 1.0E-05 M", "result": "93 % of control"}, {"measurement": "Residual activity", "setting": "SGK2; 1.0E-06 M", "result": "101 % of control"}]}
{"smiles": "O=C(Nc1ccc(F)c(Nc2ccc3c(c2)CCCCC3=O)c1)c1cccc(F)c1", "note": "[Compound 109]", "values": [{"measurement": "Residual activity", "setting": "ACVR1; 1.0E-05 M", "result": "97 % of control"}, {"measurement": "Residual activity", "setting": "ACVR1; 1.0E-06 M", "result": "88 % of control"}, {"measurement": "Residual activity", "setting": "BRK; 1.0E-05 M", "result": "84 % of control"}, {"measurement": "Residual activity", "setting": "BRK; 1.0E-06 M", "result": "105 % of control"}, {"measurement": "Residual activity", "setting": "CAMK4; 1.0E-05 M", "result": "89 % of control"}, {"measurement": "Residual activity", "setting": "CAMK4; 1.0E-06 M", "result": "97 % of control"}, {"measurement": "Residual activity", "setting": "CDK3/CycC; 1.0E-05 M", "result": "96 % of control"}, {"measurement": "Residual activity", "setting": "CDK3/CycC; 1.0E-06 M", "result": "87 % of control"}, {"measurement": "Residual activity", "setting": "DYRK1A; 1.0E-05 M", "result": "92 % of control"}, {"measurement": "Residual activity", "setting": "DYRK1A; 1.0E-06 M", "result": "92 % of control"}, {"measurement": "Residual activity", "setting": "FGFR1; 1.0E-05 M", "result": "79 % of control"}, {"measurement": "Residual activity", "setting": "FGFR1; 1.0E-06 M", "result": "93 % of control"}, {"measurement": "Residual activity", "setting": "PKCmu; 1.0E-05 M", "result": "96 % of control"}, {"measurement": "Residual activity", "setting": "PKCmu; 1.0E-06 M", "result": "95 % of control"}, {"measurement": "Residual activity", "setting": "PKN3; 1.0E-05 M", "result": "92 % of control"}, {"measurement": "Residual activity", "setting": "PKN3; 1.0E-06 M", "result": "91 % of control"}, {"measurement": "Residual activity", "setting": "S6Kbeta; 1.0E-05 M", "result": "96 % of control"}, {"measurement": "Residual activity", "setting": "S6Kbeta; 1.0E-06 M", "result": "102 % of control"}, {"measurement": "Residual activity", "setting": "SGK2; 1.0E-05 M", "result": "96 % of control"}, {"measurement": "Residual activity", "setting": "SGK2; 1.0E-06 M", "result": "97 % of control"}]}
